Publication PMC9778984, “5′-Chalcogen-Substituted Nucleoside Pyrophosphate and Phosphate Monoester Analogues: Preparation and Hydrolysis Studies” (International Journal of Molecular Sciences, 2022)

What was measured:
[1] = Hydrolysis of dinucleoside pyrophosphates at 90 °C, analysed by CZE and RP-HPLC; format: physicochemical; conditions: for half-life of the total disappearance: neutral conditions; for rate constant for the decomposition of the deadenylation (depurination) product / rate constant for the formation of the deadenylation (depurination) product: kinetics of parallel and consecutive reactions
Procedure: Reactions of pyrophosphates dASppA (1a) and 3′,5′-dTSppA (3) were studied at 90 °C. Samples taken from reaction solutions were analysed by two methods: capillary zone electrophores (CZE) and reversed-phase HPLC (RP-HPLC), for detection of polar and neutral reaction components, respectively. […] In general, the reactivity of 1a and 3 is low; the half-lives under neutral conditions are measured in tens of days even at 90 °C. The rate of the total disappearance of thiopyrophosphates 1a and 3 is practically pH-independent between pH 6 to 9. The reactivity increases at a lower pH; under alkaline conditions, the rate-enhancement is more modest.
Kinetic experiments with dinucleoside pyrophosphates 1a,b and 3 have been carried out using methods that have been reported previously, and are only briefly described below. Other experimental methods are described in detail in the Supplementary Materials (Figures S1 and S2, Tables S1 and S2).
Capillary zone electrophoretic (CZE) analysis was carried on an HP ^3DCE or on a Beckman Coulter P/ACE MDQA equipment. A fused silica capillary (57 cm effective length, 75 μm i.d.) was used. The background electrolyte was a 25 mM potassium phosphate buffer (pH 7.2). A voltage of 25–30 kV was applied and the compounds were detected at […] (HP) or 254 nm (Beckman).
RP-HPLC analysis was carried on an Agilent 1100 HPLC equipped with a DAD-detector. A Supelcosil LC-18 column (25 × 0.4 cm, particle size 5 μm) was used to separate reaction components. Eluents were mixtures of acetonitrile (MeCN) (Honeywell, Germany) and acetate buffer (0.05 M, pH 4.3) containing 0.1 M ammonium chloride (Sigma-Aldrich, Seelze, Germany). The gradient program used in routine analysis was as follows: 0–10 min isocratic 5% MeCN, 10–20 min a linear gradient to 33% MeCN, 20–30 min isocratic 33% MeCN, 30–35% a linear gradient to 5% MeCN. Flow rate was 1 mL/ min. UV-active compounds were detected at 260 nm.
Rate constants were calculated by applying the integrated first-order rate law to the disappearance of the starting material. Rate constants for the formation and decompositions of products were calculated by applying the rate law of parallel and consecutive reactions. In the case of 2, the concentration of the starting material and products were determined using calibration curves based on authentic samples. Diphenyl phosphate was used as an internal standard in reactions.

[2] = pKa of the phosphoryl moieties by 31P NMR titration; format: physicochemical; conditions: from Pβ resonance shift on acidification of aqueous solution; represents a maximum pKa value
Procedure: (§1) In order to further assess the potential for chalcogen-substituted pyrophosphate linkages to enable targeted drug delivery, the pKa values of the phosphoryl moieties were assessed using ^31P NMR titration. […] Similar values were determined for dTChppA (3.2 for 2a; 3.4 for 2b) although maximal shifts of 0.2 ppm were observed and a second inflection at ca. pH 8.5 may indicate that the shifts reflect nucleobase ionisation as significant intramolecular base stacking occurs in AppA and other dinucleoside pyrophosphates. However, the titrations’ inflections represent a maximum pKa value and therefore indicate that these moieties will be fully charged at physiological pH. We therefore briefly compared the cleavage of these pyrophosphates using snake venom monitoring the reactions of NADH, dTSppA (2a) and dTSeppA (2b) by ^31P NMR. Over 95% consumption of the native pyrophosphate substrate was observed consumed within one hour. In contrast, ca. 25% and 20% of the sulfur- and selenium-substituted analogues were cleaved during this timeframe. […] In contrast, digestion of dTSeppA plateaued at ca. 45% which may result from denaturation of the protein following release of 5′-dTSeMP and subsequent spontaneous hydrolysis to the corresponding selenol and its subsequent interaction with the active site zinc dyad and disulfide linkages.

[3] = Hydrolysis of nucleotides (phosphorus-chalcogen bond cleavage of monoesters) in aqueous buffer, monitored by 31P NMR; format: physicochemical; conditions: for ΔH^‡ of phosphorus-chalcogen bond cleavage / ΔS^‡ of phosphorus-chalcogen bond cleavage: neutral pH, Eyring parameters from variable temperature NMR
Procedure: Novel sulfur and selenium substituted 5′,5′-linked dinucleoside pyrophate analogues were prepared in a vibration ball mill from the corresponding persilylated monophosphate. The chemical hydrolysis of pyrophosphorochalcogenolate-linked dimers was studied over a wide pH-range. […] The chemical stability of the precursor phosphorochalcogenolate monoesters was also investigated. […] The rate of dephosphorylation was dependent upon both the nature of the chalcogen and the pH. The integrity of the P-S bond in the corresponding phosphorothiolate was maintained at high pH but rapidly degraded at pH 3. In contrast, P-Se bond cleavage of the phosphoroselenolate monoester was rapid and the rate increased with alkalinity. The results obtained in kinetic experiments provide insight on the reactivity of the novel pyrophosphates studied as well as of other types of thiosubstituted biological phosphates.
Evidence for a dissociative transition state can be seen in the Eyring parameters derived from variable temperature NMR analysis of the phosphorus-chalcogen bond cleavage kinetics at 29 8K, 308 K and 318 K under neutral pH conditions. Thus, positive ΔS^‡ values of 79 and 35 J mol^−1 K^−1 were determined for 5′-dTSMP (4a) and 5′-dTSeMP (4b), respectively.

snake venom (SVPDE) = test: Snake venom (SVPDE) digestion monitored by 31P NMR; format: biochemical; conditions: for mM consumed (31P NMR): 10 mM substrate, 37 °C, pH 7.5; for substrate consumed (cleaved): within one hour; for substrate consumed (digestion): over the subsequent 14 h
Procedure: as §1
To a solution of 10 mM substrate (NADH/dTSppA (2a)/dTSeppA (2b)) in aqueous buffer (TrisꞏHCl (50 mM, pH 7.5), NaCl (50 mM), 1mM MgCl2ꞏ(H2O)6) was added a solution of snake venom 0.2 mg/µL (10 µL). The reaction mixtures were incubated at 37°C for 30 minutes. Digestion was monitored by 31P NMR. dX(Ch)ppA SV P D digestion […]
mM NADH mM dTSppA mM dTSeppA time/h consumed time/h consumed time/h consumed

[4] = Hydrolysis of nucleotides (phosphorus-chalcogen bond cleavage of monoesters) in aqueous buffer, monitored by 31P NMR; format: physicochemical

Q: With `Nc1ncnc2c1ncn2[C@@H]1O[C@H](COP(=O)(O)OP(=O)(O)SC[C@H]2O[C@@H](n3cnc4c(N)ncnc43)[C@H](O)[C@@H]2O)[C@@H](O)[C@H]1O` [1a, 5′-Thioadenosine 5′-Pyrophosphate (P′→5′) adenosine] as the compound, how does the “half-life of the total disappearance” value ([1]; 90 °C) read?
A: tens of days

Q: What about the “rate constant of the total disappearance” value ([1]; pH 2, 90 °C) of the same compound?
A: 9.3e-05 s⁻¹

Q: What about the “phosphate hydrolysis rate constant relative to that reported for Ap2A (1c)” value ([1]; pH 2, 90 °C, same conditions, Ap2A value from ref 33) of the same compound?
A: six times larger

Q: What about the “rate constant of phosphate hydrolysis” value ([1]; pH 2, 90 °C, total disappearance divided, assuming the two deadenylation routes are equally fast) of the same compound?
A: 5.5e-05 s⁻¹

Q: What about the pKa [2] of the same compound?
A: 3

Q: For `Nc1ncnc2c1ncn2[C@@H]1O[C@H](COP(=O)(O)OP(=O)(O)[Se]C[C@H]2O[C@@H](n3cnc4c(N)ncnc43)[C@H](O)[C@@H]2O)[C@@H](O)[C@H]1O` [1b, 5′-deoxy-5′-selenoadenosine 5′-pyrophosphate (P′ →5′) adenosine], which “rate constant of the total disappearance” value ([1]; pH 2, 90 °C) is on record?
A: (1.55 ± 0.04) × 10^−4 s^−1

Q: And the “rate constants from the initial linear plot relative to those obtained for 1a” value ([1]; pH above acidic, where the reaction is not first-order, 90 °C, difference largest under neutral conditions)?
A: 5 to 20 times

Q: And the pKa [2]?
A: 3.3

Q: For `Cc1cn([C@H]2C[C@H](O)[C@@H](COP(=O)(O)O)O2)c(=O)[nH]c1=O` [4c, 5′-TMP, reference compound], which “k (rate constant for the hydrolysis)” value ([3]; pH 3, 363 K) is on record?
A: 2.60 10^−6 s^−1

Q: For `NC(=O)C1=CN([C@@H]2O[C@H](COP(=O)(O)OP(=O)(O)OC[C@H]3O[C@@H](n4cnc5c(N)ncnc54)[C@H](O)[C@@H]3O)[C@@H](O)[C@H]2O)C=CC1` [NADH, reference compound], which “mM consumed (31P NMR)” value (snake venom (SVPDE); time 1 h) is on record?
A: 9.62 mM

Q: And the “mM consumed (31P NMR)” value (snake venom (SVPDE); time 2 h)?
A: 10 mM

Q: And the “substrate consumed (cleaved)” value (snake venom (SVPDE))?
A: Over 95%

Q: Which “half-life of the total disappearance” value ([1]; 90 °C) does the source give for `Cc1cn([C@H]2C[C@H](S[P@](=O)(O)O[P@](=O)(O)OC[C@H]3O[C@@H](n4cnc5c(N)ncnc54)[C@H](O)[C@@H]3O)[C@@H](CO)O2)c(=O)[nH]c1=O` [compound 3] here?
A: tens of days

Q: What about the “rate constant for dethyminylation” value ([1]; neutral pH, 90 °C, non-linear regression on thymine formation, rather approximate) of the same compound?
A: (2.2 ± 0.2) × 10^−7 s^−1

Q: Which “ΔH^‡ of phosphorus-chalcogen bond cleavage” value [3] does the source give for `Cc1cn([C@H]2C[C@H](O)[C@@H](C[Se]P(=O)(O)O)O2)c(=O)[nH]c1=O` [4b] here?
A: 26.43 kcal/mol

Q: What about the “ΔS^‡ of phosphorus-chalcogen bond cleavage” value [3] of the same compound?
A: 35 J mol^−1 K^−1

Q: And the “k (rate constant for the hydrolysis)” value ([3]; pH 3, 298 K)?
A: 53.1 10^−6 s^−1

Q: What about the “k (rate constant for the hydrolysis)” value ([3]; pH 7, 298 K) of the same compound?
A: 16.8 10^−6 s^−1

Q: What about the “k (rate constant for the hydrolysis)” value ([3]; pH 11, 298 K) of the same compound?
A: 14.4 10^−6 s^−1

Q: And the “k (rate constant for the hydrolysis)” value ([4]; pH 7, 303 K)?
A: 75.1 10^−6 s^−1

Q: And the “k (rate constant for the hydrolysis)” value ([4]; pH 7, 313 K)?
A: 297 10^−6 s^−1

Q: Which pKa [2] does the source give for `Cc1cn([C@H]2C[C@H](O)[C@@H](C[Se]P(=O)(O)OP(=O)(O)OC[C@H]3O[C@@H](n4cnc5c(N)ncnc54)[C@H](O)[C@@H]3O)O2)c(=O)[nH]c1=O` [2b, 5′-deoxy-5′-selenothymidine 5′-pyrophosphate (P′ →5′) adenosine] here?
A: 3.4

Q: What about the “mM consumed (31P NMR)” value (snake venom (SVPDE); time 1 h) of the same compound?
A: 2.13 mM

Q: And the “mM consumed (31P NMR)” value (snake venom (SVPDE); time 2 h)?
A: 3.19 mM

Q: And the “mM consumed (31P NMR)” value (snake venom (SVPDE); time 3 h)?
A: 3.98 mM

Q: What about the “mM consumed (31P NMR)” value (snake venom (SVPDE); time 5 h) of the same compound?
A: 4.41 mM

Q: What about the “mM consumed (31P NMR)” value (snake venom (SVPDE); time 7 h) of the same compound?
A: 4.45 mM

Q: What about the “mM consumed (31P NMR)” value (snake venom (SVPDE); time 9 h) of the same compound?
A: 4.48 mM

Q: And the “mM consumed (31P NMR)” value (snake venom (SVPDE); time 15 h)?
A: 4.61 mM

Q: And the “substrate consumed (digestion)” value (snake venom (SVPDE))?
A: ca. 45%

Q: And the “substrate consumed (cleaved)” value (snake venom (SVPDE))?
A: ~20%

Q: What does the source list for `Cc1cn([C@H]2C[C@H](O)[C@@H](CSP(=O)(O)OP(=O)(O)OC[C@H]3O[C@@H](n4cnc5c(N)ncnc54)[C@H](O)[C@@H]3O)O2)c(=O)[nH]c1=O` [2a, 5'-thiothymidine 5'-pyrophosphate (P' →5') adenosine]?
A: pKa [2]: 3.2; mM consumed (31P NMR) (snake venom (SVPDE); time 1 h): 2.57 mM; mM consumed (31P NMR) (snake venom (SVPDE); time 2 h): 4.17 mM; mM consumed (31P NMR) (snake venom (SVPDE); time 4 h): 7.12 mM; mM consumed (31P NMR) (snake venom (SVPDE); time 15 h): 10 mM; substrate consumed (digestion) (snake venom (SVPDE)): complete consumption; substrate consumed (cleaved) (snake venom (SVPDE)): ca. 25%

Q: What does the source list for `Nc1ncnc2c1ncn2[C@@H]1O[C@H](CS[P@](=O)(O)O[P@](=O)(O)OC[C@@H](O)[C@@H](O)[C@@H](O)C=O)[C@@H](O)[C@H]1O` [compound 13]?
A: rate constant for the decomposition of the deadenylation (depurination) product ([1]; pH 2, 90 °C): 3.1e-05 s⁻¹; rate constant for the formation of the deadenylation (depurination) product ([1]; pH 2, 90 °C): 1.9e-05 s⁻¹

Q: Which “rate constant for the decomposition of the deadenylation (depurination) product” value ([1]; pH 2, 90 °C) does the source give for `Cc1cn([C@H]2C[C@H](S[P@](=O)(O)O[P@](=O)(O)OC[C@@H](O)[C@@H](O)[C@@H](O)C=O)[C@@H](CO)O2)c(=O)[nH]c1=O` [compound 18] here?
A: 2e-05 s⁻¹

Q: What about the “rate constant for the formation of the deadenylation (depurination) product” value ([1]; pH 2, 90 °C) of the same compound?
A: 2.3e-05 s⁻¹

Q: For `Cc1cn([C@H]2C[C@H](O)[C@@H](CSP(=O)(O)O)O2)c(=O)[nH]c1=O` [4a], which time for hydrolysis ([3]; acidic conditions, 25 °C) is on record?
A: within hours

Q: And the “ΔH^‡ of phosphorus-chalcogen bond cleavage” value [3]?
A: 30.23 kcal/mol

Q: And the “ΔS^‡ of phosphorus-chalcogen bond cleavage” value [3]?
A: 79 J mol^−1 K^−1

Q: And the “k (rate constant for the hydrolysis)” value ([3]; pH 3, 298 K)?
A: 152 10^−6 s^−1

Q: What about the “reactivity difference between 5′-dTSMP (4a) and 5′-TMP (4c)” value ([3]; pH 3, estimated on the basis of Table 1) of the same compound?
A: approximately 700,000 fold

Q: What about the “k (rate constant for the hydrolysis)” value ([3]; pH 7, 298 K) of the same compound?
A: 5.19 10^−6 s^−1

Q: What about the “k (rate constant for the hydrolysis)” value ([3]; pH 7, 308 K) of the same compound?
A: 17.1 10^−6 s^−1

Q: And the “k (rate constant for the hydrolysis)” value ([3]; pH 7, 318 K)?
A: 58.4 10^−6 s^−1

Q: What about the “k (rate constant for the hydrolysis)” value ([3]; pH 11, 298 K) of the same compound?
A: 0.34 10^−6 s^−1
